Source: ChEMBL document CHEMBL4350994, “Andrographolide: A natural product template for the generation of structurally and biologically diverse diterpenes” (Eur J Med Chem, 2019)

Experiments:
[1] = test system: DU-145; assay: Growth inhibition of human DU145 cells; type: functional
[2] = Growth inhibition of human OVCAR1 cells; type: functional
[3] = test system: U-251; assay: Growth inhibition of human U251 cells; type: functional
[4] = test system: NCI/ADR-RES; assay: Growth inhibition of human MCF7/ADR cells; type: functional
[5] = test system: SW-620; assay: Growth inhibition of human SW620 cells; type: functional
[6] = test system: SK-OV-3; assay: Growth inhibition of human SKOV3 cells; type: functional
[7] = test system: A498; assay: Growth inhibition of human A498 cells; type: functional
[8] = Antiviral activity against H9N2 subtype infected in MDCK cells after 2 to 3 days; type: functional, cell-based; conditions: Influenza A virus
[9] = test system: H5N1 subtype; assay: Antiviral activity against H5N1 subtype infected in MDCK cells after 2 to 3 days; type: functional, organism-based; conditions: Influenza A virus
[10] = Selectivity index, ratio of CC50 for MDCK cells to EC50 for H9N2 subtype
[11] = Antiviral activity H1N1 subtype infected in MDCK cells after 2 to 3 days; type: functional, cell-based; conditions: Influenza A virus
[12] = Selectivity index, ratio of CC50 for MDCK cells to EC50 for H5N1 subtype
[13] = Selectivity index, ratio of CC50 for MDCK cells to EC50 for H1N1 subtype
[14] = biological target: T1, Bile acid receptor (Homo sapiens, UniProt Q96RI1); assay: Antagonist activity at FXR (unknown origin)
T1 sequence (Q96RI1 whole entry): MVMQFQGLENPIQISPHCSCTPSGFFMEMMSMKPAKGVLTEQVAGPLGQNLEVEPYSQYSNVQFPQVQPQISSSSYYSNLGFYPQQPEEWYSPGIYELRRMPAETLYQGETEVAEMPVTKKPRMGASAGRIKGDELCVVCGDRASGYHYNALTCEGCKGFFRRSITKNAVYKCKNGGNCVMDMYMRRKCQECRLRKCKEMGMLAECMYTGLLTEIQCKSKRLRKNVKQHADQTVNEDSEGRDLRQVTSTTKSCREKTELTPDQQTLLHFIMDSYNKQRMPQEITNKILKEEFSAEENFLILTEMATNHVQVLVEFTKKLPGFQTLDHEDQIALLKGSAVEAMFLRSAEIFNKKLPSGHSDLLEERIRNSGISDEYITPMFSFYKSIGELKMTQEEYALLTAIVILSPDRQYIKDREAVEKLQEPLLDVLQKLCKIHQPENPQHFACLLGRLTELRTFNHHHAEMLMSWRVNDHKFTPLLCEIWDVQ

[15] = test system: MCF7; assay: Growth inhibition of human MCF7 cells; type: functional
[16] = test system: Rattus norvegicus; assay: Hypoglycemic activity in diabetic rat assessed as decrease in blood glucose level at 150 mg/kg after 24 hrs relative to control; type: functional; design: scale not given: the % may be the effect or the level left
[17] = biological target: T1, Bile acid receptor; assay: Antagonist activity at Gal4 DBD-fused human FXR LBD expressed in human HepG2 cells after 8 hrs by luciferase reporter gene assay; type: cell-based
[18] = test system: Mus musculus; assay: Hypoglycemic activity in db/db mouse assessed as decrease in blood glucose level at 100 mg/kg administered daily for 6 days relative to control; type: functional; design: scale not given: the % may be the effect or the level left
[19] = test system: Mus musculus; assay: Decrease in plasma triglycerides level in db/db mouse at 100 mg/kg administered daily for 6 days relative to control; type: functional; design: scale not given: the % may be the effect or the level left
[20] = Cytotoxicity against human KKU-M213 cells assessed as reduction in cell viability after 24 hrs by MTT assay; type: functional, cell-based; conditions: KKU-M213, 24 h

Work on `C=C1CC[C@@H]2[C@](C)(CO)[C@H](O)CC[C@@]2(C)[C@@H]1C/C=C/c1ccc(F)cc1` yielded a GI50 [1] of 2000 to 27000 nM.

For `C=C1CC[C@@H]2[C@]3(C)COC(C)(c4ccccc4)O[C@@H]3CC[C@@]2(C)[C@@H]1CC(NC(Cc1ccccc1)C(=O)OC)C1=CCOC1=O` (some centres not stated), the GI50 [2] was 1400 nM.

For `C=C1CC[C@@H]2[C@](C)(CO)[C@H](O)CC[C@@]2(C)[C@@H]1C/C=C1/C(=O)OC[C@H]1OC(=O)c1ccccc1`, the GI50 [3] was 1500 nM.

In the case of `CCC(=O)OC[C@@]1(C)[C@H]2CC[C@@]3(CO3)[C@@H](C/C=C3/C(=O)OC[C@H]3OC(=O)/C=C/c3ccccc3)[C@]2(C)CC[C@H]1OC(=O)CC`, the GI50 [4] is reported as 80 to 6000 nM, the GI50 [3] is reported as 80 to 6000 nM and the GI50 [5] is reported as 80 to 6000 nM. The GI50 [6] was 80 to 6000 nM, the GI50 [1] was 80 to 6000 nM and the GI50 [7] was 80 to 6000 nM.

`C=C1CC[C@@H]2[C@]3(C)COC(C)(c4ccccc4)O[C@@H]3CC[C@@]2(C)[C@@H]1CC(C1=CCOC1=O)N1CCCC1C(=O)OC` (some centres not stated) showed a GI50 [2] of 1000 nM.

In the case of `C=C1CC[C@@H]2[C@](C)(CO)[C@H](O)CC[C@@]2(C)[C@@H]1C/C=C1/C(=O)OC[C@H]1OC(=O)Nc1ccccc1`, the GI50 [4] is reported as 400 nM.

`CCC(=O)OC[C@@]1(C)[C@H]2CC[C@@]3(CO3)[C@@H](C/C=C3/C(=O)OC[C@H]3OC(=O)/C=C/c3ccc(OC)c(OC)c3)[C@]2(C)CC[C@H]1OC(=O)CC` gave a GI50 [4] of 400 to 7500 nM, a GI50 [3] of 400 to 7500 nM and a GI50 [5] of 400 to 7500 nM. It also gave a GI50 [6] of 400 to 7500 nM, a GI50 [1] of 400 to 7500 nM and a GI50 [7] of 400 to 7500 nM.

For `C=C1CC[C@@H]2[C@](C)(CO)[C@H](O)CC[C@@]2(C)[C@@H]1C/C=C1/C(=O)OC[C@H]1OC(=O)CCCCC1CCSS1` (some centres not stated), the EC50 [8] was 7200 to 15200 nM, the EC50 [9] was 7200 to 15200 nM and the “Selectivity Index” value [10] was 51 - 109. The EC50 [11] was 7200 to 15200 nM, the “Selectivity Index” value [12] was 51 - 109 and the “Selectivity Index” value [13] was 51 - 109.

`C=C1CC[C@@H]2[C@](C)(CO)[C@H](O)CC[C@@]2(C)[C@@H]1C/C=C1/C(=O)OC[C@@H]1Oc1ccccc1OC` gave an IC50 [14] of 550 to 2000 nM.

`C=C1CC[C@@H]2[C@](C)(CO)[C@H](O)CC[C@@]2(C)[C@@H]1C/C=C1/SC(=O)NC1=O` showed a GI50 [1] of 780 nM.

`CCC(=O)OC[C@@]1(C)[C@H]2CC[C@@]3(CO3)[C@@H](C/C=C3/C(=O)OC[C@H]3OC(=O)/C=C/c3cccc(OC)c3)[C@]2(C)CC[C@H]1OC(=O)CC` showed a GI50 [4] of 600 to 4800 nM, a GI50 [3] of 600 to 4800 nM and a GI50 [5] of 600 to 4800 nM. For the same compound, the GI50 [6] was 600 to 4800 nM, the GI50 [1] was 600 to 4800 nM and the GI50 [7] was 600 to 4800 nM.

`C=C1CC[C@@H]2[C@](C)(CO)[C@H](O)CC[C@@]2(C)[C@@H]1C/C=C/c1ccccc1` gave a GI50 [1] of 2000 to 27000 nM.

Compound `C=C1CC[C@@H]2[C@](C)(COC(C)=O)[C@H](OC(C)=O)CC[C@@]2(C)[C@@H]1C/C=C1/C(=O)OC[C@H]1OC(=O)CNC(C)=O` has a GI50 [3] of 1500 nM.

Work on `CC(=O)OC[C@@]1(C)[C@H]2CC[C@@]3(CO3)[C@@H](CC(Sc3ccccc3)C3=CCOC3=O)[C@]2(C)CC[C@H]1OC(C)=O` (some centres not stated) yielded a GI50 [1] of 2000 nM.

Work on `C=C1CC[C@@H]2[C@]3(C)COC(C)(C)O[C@@H]3CC[C@@]2(C)[C@@H]1Cc1cc(=O)[nH]c(N)n1` yielded a GI50 [1] of 200 nM.

Compound `C=C1CC[C@@H]2[C@](C)(COC(C)=O)[C@H](OC(C)=O)CC[C@@]2(C)[C@@H]1CC(C1=CCOC1=O)n1cc(I)c(=O)[nH]c1=O` (some centres not stated) has a GI50 [4] of 2000 nM, a GI50 [3] of 2000 nM and a GI50 [15] of 2000 nM. It also gave a GI50 [2] of 2000 nM.

With `C=C1CC[C@@H]2[C@]3(C)COC(C)(C)O[C@@H]3CC[C@@]2(C)[C@@H]1C/C=C1/C(=O)OC[C@@H]1Oc1ccc([N+](=O)[O-])cc1OC` the IC50 [14] was 550 to 2000 nM.

With `COc1ccc(Cl)cc1C(=O)NCCc1ccc(S(=O)(=O)NC(=O)NC2CCCCC2)cc1` [GLYBURIDE] the Activity [16] was 62.02%.

For `C=C1CC[C@@H]2[C@](C)(CO)[C@H](O)CC[C@@]2(C)[C@@H]1C/C=C1/C(=O)OC[C@H]1O` [ANDROGRAPHOLIDE], the IC50 [17] was 9700 nM, the GI50 [4] was 3000 to 20000 nM and the GI50 [3] was 3000 to 20000 nM. For the same compound, the GI50 [5] was 3000 to 20000 nM, the GI50 [6] was 3000 to 20000 nM and the GI50 [1] was 3000 to 20000 nM. It also gave a GI50 [7] of 3000 to 20000 nM, a GI50 [15] of 3000 to 20000 nM and a GI50 [2] of 3000 to 20000 nM. It also gave an Activity [18] of 64%, an Activity [19] of 54% and an IC50 [14] of 9700 nM.

For `C=C1CC[C@@H]2[C@](C)(CO)[C@H](O)CC[C@@]2(C)[C@@H]1C/C=C/c1cccc(Cl)c1`, the GI50 [1] was 2000 to 27000 nM.

With `C[C@]1(CO)[C@H]2CC[C@@]3(CO3)[C@@H](C/C=C3/C(=O)OC[C@H]3OC(=O)/C=C/c3ccccc3)[C@]2(C)CC[C@H]1O` the GI50 [4] was 500 to 9000 nM, the GI50 [3] was 500 to 9000 nM and the GI50 [5] was 500 to 9000 nM. The GI50 [6] was 500 to 9000 nM, the GI50 [1] was 500 to 9000 nM and the GI50 [7] was 500 to 9000 nM.

`CC(=O)OC[C@@]1(C)[C@H]2CC[C@@]3(CO3)[C@@H](C/C=C3/C(=O)OC[C@H]3OC(C)=O)[C@]2(C)CC[C@H]1OC(C)=O` gave a GI50 [4] of 250 to 5000 nM, a GI50 [3] of 250 to 5000 nM and a GI50 [5] of 250 to 5000 nM. For the same compound, the GI50 [6] was 250 to 5000 nM, the GI50 [1] was 250 to 5000 nM and the GI50 [7] was 250 to 5000 nM.

Work on `CC(C)(C)[Si](OC[C@@]1(C)[C@H]2CC[C@@]3(CO3)[C@@H](C/C=C3/C(=O)OC[C@H]3O)[C@]2(C)CC[C@H]1O)(c1ccccc1)c1ccccc1` yielded an IC50 [20] of 8000 nM.
